Measured values as given in US20240116985A1, “STAPLED PEPTIDES AND METHODS THEREOF” (priority 2020, published 2024).
Converted amounts (≈) assume the structure as drawn. Like-named read-outs stand apart in the source and are kept apart here.

Assays:
[1] = target: T1, full-length B-Catenin (Uniprot ID P35222) (Homo sapiens, UniProt P35222); experiment: Alphascreen binding assay (beta-catenin / biotin-TCF4 10-53)
T1 construct: 65 nM full-length B-Catenin (Uniprot ID P35222)
T1 sequence (P35222 1-781): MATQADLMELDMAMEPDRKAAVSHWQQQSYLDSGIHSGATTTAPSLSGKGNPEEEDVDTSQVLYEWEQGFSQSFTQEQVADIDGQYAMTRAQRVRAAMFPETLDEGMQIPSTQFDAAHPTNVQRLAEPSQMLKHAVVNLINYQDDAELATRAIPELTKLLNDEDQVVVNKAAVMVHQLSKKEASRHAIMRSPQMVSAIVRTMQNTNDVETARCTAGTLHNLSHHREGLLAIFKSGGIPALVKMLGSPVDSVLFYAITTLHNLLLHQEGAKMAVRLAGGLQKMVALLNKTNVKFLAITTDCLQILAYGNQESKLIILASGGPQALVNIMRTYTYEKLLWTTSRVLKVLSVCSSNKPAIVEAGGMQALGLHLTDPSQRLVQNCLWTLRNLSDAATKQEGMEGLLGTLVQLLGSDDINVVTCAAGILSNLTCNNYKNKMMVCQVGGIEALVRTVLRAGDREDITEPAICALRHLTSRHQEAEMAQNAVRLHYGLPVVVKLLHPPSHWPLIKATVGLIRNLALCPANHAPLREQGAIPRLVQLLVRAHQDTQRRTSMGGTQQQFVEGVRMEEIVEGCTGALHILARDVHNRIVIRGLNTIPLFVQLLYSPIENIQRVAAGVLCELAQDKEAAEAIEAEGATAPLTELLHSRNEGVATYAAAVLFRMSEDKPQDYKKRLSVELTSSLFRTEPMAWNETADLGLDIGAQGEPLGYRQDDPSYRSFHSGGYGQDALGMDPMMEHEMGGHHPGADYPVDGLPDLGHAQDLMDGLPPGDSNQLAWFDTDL
How it was run: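 Final concentrations: 65 nM full-length human β-catenin plus 10 nM biotin-TCF4(10-53) peptide, test peptide 3-fold from 10 uM to 5 nM, preincubated 15 min at 20 °C in Tris pH 8.0/250 mM NaCl buffer. Nickel-chelate AlphaScreen donor/acceptor beads then added for 60 min in the dark; duplicate reads fitted to 1:1 binding model with Hill slope.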

[2] = target: T2, full-length beta-Catenin (Uniprot ID P35222) (Homo sapiens, UniProt P35222); experiment: Fluorescence polarization IC50 (beta-catenin / 5FAM-TCF4 10-53 competition); type: binding
T2 construct: 10 nM full-length beta-Catenin (Uniprot ID P35222)
T2 sequence (P35222 1-781): T1 sequence (P35222 1-781)

CHI Log D procedure = type: physicochemical; conditions: for chromatographic logD: pH 7.4, CHI Log D; for CHI Log D: pH 7.4
Solubility in PBS = type: physicochemical
How it was run: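 Solubility is derived from HPLC peak areas: the ratio of the PBS supernatant peak to a 50 μM DMSO peptide peak, times 50 uM.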

[3] = Table E2-1, read-out: beta-Catenin FP IC50
[4] = fluorescence polarization, beta-catenin, read-out: FP EC50

Compound	EC50 [1]	IC50 [2, 3]	chromatographic logD (CHI Log D procedure)	Solubility (Solubility in PBS)	IC50 [2, 4]	CHI Log D (CHI Log D procedure)	Solubility (Solubility in PBS; Solubility (uM))
CC(=O)N1CCC[C@]12CC=CCCCC1(CCCC=CCCCCCC[C@@](C)(C(=O)N[C@@H](Cc3ccccc3)C(=O)N[C@@H](Cc3c[nH]c4ccccc34)C(=O)N[C@@H](CCC(N)=O)C(N)=O)NC(=O)[C@H](C(C)C)NC(=O)[C@H](Cc3ccccc3)NC(=O)[C@H](C)NC(=O)[C@H](C)NC(=O)[C@H](CC(=O)O)NC(=O)[C@H](CC(=O)O)NC1=O)NC(=O)[C@H](C)NC(=O)[C@H](CC(=O)O)NC2=O (stereo partly drawn) [I-52, Ac-PL3-Asp-Ala-B5-Asp-Asp-Ala-Ala-Phe-Val-S8-Phe-Trp-Gln-NH2]	158 nM	3200 nM	1.93	50 µM (≈ 89.1 µg/mL)			
CC[C@H](C)[C@H](NC(=O)[C@H](CC(=O)O)NC(=O)[C@H](C)NC(C)=O)C(=O)N[C@]1(C)CCN(C)C(=O)OCC=CCCCCC[C@@](C)(C(=O)N[C@@H](Cc2ccccc2)C(=O)N[C@@H](Cc2c[nH]c3ccccc23)C(=O)N[C@@H](Cc2c[nH]cn2)C(N)=O)NC(=O)[C@H](CCC(N)=O)NC(=O)[C@H](Cc2ccccc2)NC(=O)[C@H](C)NC(=O)[C@H](C)NC(=O)[C@H](CCC(=O)O)NC(=O)[C@H](CC(=O)O)NC1=O [I-67, Ac-Ala-Asp-Ile-RdN-Asp-Glu-Ala-Ala-Phe-Gln-S7-Phe-Trp-His-NH2]	154 nM	1230 nM		50 µM (≈ 92.1 µg/mL)	1230 nM	1.24	
CCN(CC(=O)O)C[C@@H]1NC(=O)[C@H](CC(=O)O)NC(=O)C2(CCCC=CCCCCCC[C@@](C)(C(=O)N[C@@H](Cc3ccccc3)C(=O)N[C@@H](Cc3c[nH]c4ccccc34)C(=O)N[C@@H](CCC(N)=O)C(N)=O)NC(=O)[C@H](C(C)C)NC(=O)[C@H](Cc3ccccc3)NC(=O)[C@H](C)NC(=O)[C@H](C)NC1=O)CCCC=CC[C@]1(CCCN1C(C)=O)C(=O)N[C@@H](CC(=O)O)C(=O)N[C@@H](C)C(=O)N2 (stereo partly drawn) [I-173, Ac-PL3-Asp-Ala-B5-Asp-EtGA-Ala-Ala-Phe-Val-S8-Phe-Trp-Gln-NH2]	105 nM	3120 nM		26 µM (≈ 47.8 µg/mL)	3120 nM	3.076	
CC(=O)N1CCC[C@]12CC=CCCCC1(CCCC=CCCCCCC[C@@](C)(C(=O)N[C@@H](Cc3ccccc3)C(=O)N[C@@H](Cc3c[nH]c4ccccc34)C(=O)N[C@@H](CCC(N)=O)C(N)=O)NC(=O)[C@H](C(C)C)NC(=O)[C@H](Cc3ccccc3)NC(=O)[C@H](C)NC(=O)[C@H](C)NC(=O)C(Cc3cccc4cc(F)ccc34)NC(=O)[C@H](CC(=O)O)NC1=O)NC(=O)[C@H](C)NC(=O)[C@H](CC(=O)O)NC2=O (stereo partly drawn) [I-256, Ac-PL3-Asp-Ala-B5-Asp-6F1NapA-Ala-Ala-Phe-Val-S8-Phe-Trp-Gln-NH2]	9210 nM		3.1	10 µM (≈ 18.8 µg/mL)			
CC(=O)N1CCC[C@]12CC=CCCCC1(CCCC=CCCCCCC[C@@](C)(C(=O)N[C@@H](CCc3ccccc3)C(=O)N[C@@H](Cc3c[nH]c4ccccc34)C(=O)N[C@@H](CCC(N)=O)C(N)=O)NC(=O)[C@H](C(C)C)NC(=O)[C@H](Cc3ccccc3)NC(=O)[C@H](C)NC(=O)[C@H](C)NC(=O)[C@H](CC(=O)O)NC(=O)[C@H](CC(=O)O)NC1=O)NC(=O)[C@H](C)NC(=O)[C@H](CC(=O)O)NC2=O (stereo partly drawn) [I-268, Ac-PL3-Asp-Ala-B5-Asp-Asp-Ala-Ala-Phe-Val-S8-hPhe-Trp-Gln-NH2]	4000 nM		2.08				47 µM (≈ 84.4 µg/mL)
CC(=O)N1CCC[C@]12CC=CCCCC1(CCCC=CCCCCCC[C@@](C)(C(=O)N[C@@H](Cc3ccccc3)C(=O)N[C@@H](Cc3c[nH]c4ccccc34)C(=O)N[C@@H](CCC(N)=O)C(N)=O)NC(=O)[C@H](C(C)C)NC(=O)[C@H](Cc3ccccc3)NC(=O)[C@H](C)NC(=O)[C@H](C)NC(=O)[C@H](CCc3ccc(O)cc3)NC(=O)[C@H](CC(=O)O)NC1=O)NC(=O)[C@H](C)NC(=O)[C@H](CC(=O)O)NC2=O (stereo partly drawn) [I-273, Ac-PL3-Asp-Ala-B5-Asp-hTyr-Ala-Ala-Phe-Val-S8-Phe-Trp-Gln-NH2]	1890 nM		2.74	10 µM (≈ 18.4 µg/mL)			
CC(=O)N1CCC[C@]12CC=CCCCC1(CCCC=CCCCCCC[C@@](C)(C(=O)N[C@@H](Cc3ccccc3)C(=O)N[C@@H](Cc3c[nH]c4ccccc34)C(=O)N[C@@H](CCC(N)=O)C(N)=O)NC(=O)[C@H](C(C)C)NC(=O)[C@H](Cc3ccccc3)NC(=O)[C@H](C)NC(=O)[C@H](C)NC(=O)[C@H](Cc3ccc(O)cc3)NC(=O)[C@H](CC(=O)O)NC1=O)NC(=O)[C@H](C)NC(=O)[C@H](CC(=O)O)NC2=O (stereo partly drawn) [I-274, Ac-PL3-Asp-Ala-B5-Asp-Tyr-Ala-Ala-Phe-Val-S8-Phe-Trp-Gln-NH2]	2350 nM		2.62	10 µM (≈ 18.3 µg/mL)			
CC(=O)N1CCC[C@]12CC=CCCCC1(CCCC=CCCCCCC[C@@](C)(C(=O)N[C@@H](Cc3ccc4ccccc4c3)C(=O)N[C@@H](Cc3c[nH]c4ccccc34)C(=O)N[C@@H](CCC(N)=O)C(N)=O)NC(=O)[C@H](C(C)C)NC(=O)[C@H](Cc3ccccc3)NC(=O)[C@H](C)NC(=O)[C@H](C)NC(=O)[C@H](CC(=O)O)NC(=O)[C@H](CC(=O)O)NC1=O)NC(=O)[C@H](C)NC(=O)[C@H](CC(=O)O)NC2=O (stereo partly drawn) [I-277, Ac-PL3-Asp-Ala-B5-Asp-Asp-Ala-Ala-Phe-Val-S8-2NapA-Trp-Gln-NH2]	6800 nM			45 µM (≈ 82.4 µg/mL)		2.186	
CC(=O)N1CCC[C@]12CC=CCCCC1(CCCC=CCCCCCC[C@@](C)(C(=O)N[C@@H](Cc3ccccc3)C(=O)N[C@@H](Cc3c[nH]c4ccccc34)C(=O)N[C@@H](CCC(N)=O)C(N)=O)NC(=O)[C@H](C)NC(=O)[C@H](Cc3ccccc3)NC(=O)[C@H](C)NC(=O)[C@H](C)NC(=O)[C@H](CC(=O)O)NC(=O)[C@H](CC(=O)O)NC1=O)NC(=O)[C@H](C)NC(=O)[C@H](CC(=O)O)NC2=O (stereo partly drawn) [I-288, Ac-PL3-Asp-Ala-B5-Asp-Asp-Ala-Ala-Phe-Ala-S8-Phe-Trp-Gln-NH2]	74 nM	1310 nM		32 µM (≈ 56.1 µg/mL)	1310 nM	1.926	
CC(=O)N1CCC[C@]12CC=CCCCC1(CCCC=CCCCCCC[C@@](C)(C(=O)N[C@@H](Cc3ccccc3)C(=O)N[C@@H](Cc3c[nH]c4ccccc34)C(=O)N[C@@H](CCC(N)=O)C(N)=O)NC(=O)[C@H](C(C)C)NC(=O)[C@H](C)NC(=O)[C@H](C)NC(=O)[C@H](C)NC(=O)[C@H](CC(=O)O)NC(=O)[C@H](CC(=O)O)NC1=O)NC(=O)[C@H](C)NC(=O)[C@H](CC(=O)O)NC2=O (stereo partly drawn) [I-353, Ac-PL3-Asp-Ala-B5-Asp-Asp-Ala-Ala-Ala-Val-S8-Phe-Trp-Gln-NH2]	9290 nM			45 µM (≈ 76.7 µg/mL)		1.916	
CC(=O)N1CCC[C@]12CC=CCCCC1(CCCC=CCCCCCC[C@@](C)(C(=O)N[C@@H](Cc3ccccc3)C(=O)N[C@@H](Cc3c[nH]c4ccccc34)C(=O)N[C@@H](CCC(N)=O)C(N)=O)NC(=O)[C@H](C(C)C)NC(=O)[C@H](C)NC(=O)[C@H](C)NC(=O)[C@H](C)NC(=O)[C@H](CC(=O)O)NC(=O)[C@H](CC(=O)O)NC1=O)NC(=O)[C@H](C)NC(=O)[C@H](CC(=O)O)NC2=O (stereo partly drawn) [I-354, Ac-PL3-Asp-Ala-B5-Asp-Asp-Ala-Ala-Ala-Val-S8-Phe-Trp-Gln-NH2]	2130 nM			50 µM (≈ 85.2 µg/mL)		1.947	
CC(=O)N1CCC[C@]12CC=CCCCC1(CCCC=CCCCCCC[C@@](C)(C(=O)N[C@@H](C)C(=O)N[C@@H](Cc3c[nH]c4ccccc34)C(=O)N[C@@H](CCC(N)=O)C(N)=O)NC(=O)[C@H](C(C)C)NC(=O)[C@H](Cc3ccccc3)NC(=O)[C@H](C)NC(=O)[C@H](C)NC(=O)[C@H](CC(=O)O)NC(=O)[C@H](CC(=O)O)NC1=O)NC(=O)[C@H](C)NC(=O)[C@H](CC(=O)O)NC2=O (stereo partly drawn) [I-356, Ac-PL3-Asp-Ala-B5-Asp-Asp-Ala-Ala-Phe-Val-S8-Ala-Trp-Gln-NH2]	8200 nM			50 µM (≈ 85.2 µg/mL)		1.619	
